Results: patent publication US20090047369A1, “Composition Comprising 4-Carbon Dicarboxlic Acids for Improvement of Memory Function” (Eubioslab Co., Ltd, priority 2006, published 2009)

What was measured:
cerebral cortex = conditions: normal persons; Saarma J. et al. 1975; cited from earlier work
Sprague Dawley rats [1] = experiment: Morris water maze test (escape time to hidden platform); type: in vivo
Protocol: In the Morris water maze test, each of the test animals was given four swimming trials per session per day for 4-5 days. When the escape latency of the test animal, that is, the time for the test animal to reach a hidden platform 2 cm below the surface of water, was shortened to about 10±2 seconds during the repeat of the learning sessions, a probe test was performed after 24 hours one time for 60 seconds without the platform.
In the present invention, the effect of formulated drugs on the improvement of learning and memory for spatial recognition of a normal test animal group (Sprague Dawley rats) was tested by administering the drugs to the test animals orally or through drinking water for 2, 3 or 4 weeks and performing a Morris water maze test at 2, 3 or 4 weeks after the drug administration.
(§1) In the Morris water maze test, each of the test animals was given four swimming trials per session per day for 4-5 days. When the escape latency of the test animal, that is, the time for the test animal to reach a hidden platform 2 cm below the surface of water, became shorter than 10±2 seconds during the repeat of the learning sessions, a probe test was performed after 24 hours one time for 60 seconds without the platform. The probe test was performed by removing the platform from the swimming pool and observing the swimming behavior of the test animals. In the probe test, as measures of spatial working memory, the retention time and movement distance of the test animals in the same area of a quadrant region including the position in which the platform was present during the first learning period were analyzed and compared with those of the control group.
Starting from 4 weeks of the administration, a Morris water maze test was performed at a given time point daily four times per day for 4 days to analyze the effect of each composition on the improvement of learning and memory for spatial recognition function of the test animals. As the test results are shown in FIG. 1(a) showing the escape time of each group.

Sprague Dawley rats [2] = experiment: probe test after Morris water maze learning (platform removed); type: in vivo
Protocol: as §1
At 5 days, that is, after 24 hours when the escape time for the learned test animals to reach the platform became an average of 10±2 seconds, the platform was removed and a probe test was performed one time. The test results are shown in FIG. 1(b) to analyze an improvement in learning and memory for spatial recognition functions.

[3] = administered for 1 week; Jpn J Psychiatry Neurol 1991; cited from earlier work
ischemia-induced brain = conditions: administered after hypoxia; Ann. Thorac. Surg. 1994; cited from earlier work
[4] = fumaric acid 100 mg/kg with Tween80 100 mg/kg (FA100Tw100 group), drinking water 4 weeks, vs Tw50 control

O=C(O)CCC(=O)O [SS, sodium succinate]
excitability of the cerebral cortex (cerebral cortex): stabilizes the excitability of the cerebral cortex

O=C(O)CCC(=O)O [succinic acid]
learning ability in the Morris water maze test (Sprague Dawley rats [1]; succinic acid 100 mg/kg with Span80 200 mg/kg (SA100Sp200 group), drinking water 3 weeks, session 4, P<0.001 vs DW control, Mann Whitney U test): significant increase in learning ability
working memory in the probe test (Sprague Dawley rats [2]; succinic acid 100 mg/kg with Span80 200 mg/kg (SA100Sp200 group), drinking water 3 weeks, vs DW control): insignificant (P=0.089) improvement in working memory

CN(C)CCCN1c2ccccc2CCc2ccccc21 [imipramine]
antidepressant effect [3]: significant antidepressant effect

O=CCCC(=O)O [SSA, succinic semialdehyde, reference compound]
excitability of the cerebral cortex (cerebral cortex): enhances the excitability of the cerebral cortex

O=C(O)/C=C/C(=O)O [fumaric acid]
improvement of learning (escape time) (Sprague Dawley rats [1]; [4]): significant (p<0.05) effect on the improvement of both learning and working memory
effect on the improvement of learning and memory (Sprague Dawley rats [1]; fumaric acid given with Tween80 (FA50Tw50, FA100Tw100 groups) through drinking water 4 weeks, vs Tw50 control): dose-dependent effect on the improvement of learning and memory
improvement of working memory (Sprague Dawley rats [2]; [4]): significant (p<0.05) effect on the improvement of both learning and working memory
nerve protective effect (ischemia-induced brain): nerve protective effects
